The series is described as follows: Solubility of GSD in the active-ingredient-containing matrix. Format: physicochemical.

Experimental findings from patent publication US9060955B2, “Transdermal therapeutic system with crystallization-inhibiting protective film (release liner)” (Bayer Intellectual Property GmbH, priority 2010, dated 2015) are described below.

Structures are written as SMILES.

`C#C[C@]1(O)C=C[C@H]2[C@@H]3CCC4=CC(=O)CC[C@@H]4[C@H]3CC[C@@]21CC` [GSD, gestodene]: the “Solubility in the active-ingredient-containing matrix” value is listed as “ca. 2%”.
